Test results from EP0565634B1, “ANGIOTENSIN II RECEPTOR BLOCKING COMPOSITIONS” (SMITHKLINE BEECHAM CORPORATION, priority 1990, dated 1992).
Read-outs that look alike come from different tables or passages of the source.

Assays:
mean arterial pressure = test: Antihypertensive activity in renal artery ligated, renin-dependent hypertensive conscious rats; format: in vivo; settings: Rattus norvegicus, po, 192 h, orally, seven to eight days following ligation, read-out: IC30 (dose needed to reduce mean arterial pressure by 30 mmHg)
Experimental: (§1) Angiotensin II antagonist activity of the compounds of Formula (I) is assessed by in vitro and in vivo methods. In vitro antagonist activity is determined by the ability of the compounds to compete with ^125I-angiotensin II for binding to vascular angiotensin II receptors and by their ability to antagonize the contractile response to angiotensin II in the isolated rabbit aorta. In vivo activity is evaluated by the efficacy of the compounds to inhibit the pressor response to exogenous angiotensin II in conscious rats and to lower blood pressure in a rat model of renin dependent hypertension.
The antihypertensive activity of the compounds is measured by their ability to reduce mean arterial pressure in conscious rats made renin-dependent hypertensive by ligation of the left renal artery (Cangiano et al;., J. Pharmacol. Exp. Ther. 208:310, 1979). Renal artery ligated rats are prepared with indwelling catheters as described above. Seven to eight days following renal artery ligation, the time at which plasma renin levels are highest, the conscious rats are placed in restrainers and mean arterial pressure is continuously recorded prior to and following the administration of the compounds intravenously or orally. The dose of compound needed to reduce mean arterial pressure by 30 mmHg (IC30) is used as an estimate of potency. […]

[1] = molecular target: vascular angiotensin II receptors; test: Radioligand binding assay, displacement of 125I-angiotensin II; settings: particular fraction from rat mesenteric arteries, 80 pM 125I-angiotensin II, 1 hour at 25°C
Experimental: as §1
The radioligand binding assay is a modification of a method previously described in detail (Gunther et al., Circ. Res. 47:278, 1980). A particular fraction from rat mesenteric arteries is incubated in Tris buffer with 80 pM of ^125I-angiotensin II with or without angiotensin II antagonists for 1 hour at 25°C. The incubation is terminated by rapid filtration and receptor bound ^125I-angiotensin II trapped on the filter is quantitated with a gamma counter. The potency of angiotensin II antagonists is expressed as the IC50 which is the concentration of antagonist needed to displace 50% of the total specifically bound angiotensin II. The IC50 of (E)-3-[2-n-butyl-1-{(4-carboxyphenyl)methyl}-1H-imidazol-5-yl]-2-(2-thienyl)methyl-2-propenoic acid is about 1.0 nM.

[2] = system: pressor response to exogenous angiotensin II; test: Inhibition of pressor response to angiotensin II in conscious rats; format: in vivo; settings: Rattus norvegicus, intravenous injections of 250 mg/kg angiotensin II, read-out: IC50 (dose needed to produce 50% inhibition of the control response to angiotensin II)
Experimental: as §1
Rats are prepared with indwelling femoral arterial and venous catheters and a stomach tube (Gellai et al., Kidney Int. 15:419, 1979). Two to three days following surgery the rats are placed in a restrainer and blood pressure is continuously monitored from the arterial catheter with a pressure transducer and recorded on a polygraph. The change in mean arterial pressure in response to intravenous injections of […] angiotensin II is compared at various time points prior to and following the administration of the compounds intravenously or orally at doses of 0.1 to 300 mg/kg. The dose of compound needed to produce 50% inhibition of the control response to angiotensin II (IC50) is used to estimate the potency of the compounds.

## CCCCc1ncc(/C=C(\Cc2cccs2)C(=O)O)n1Cc1ccc(C(=O)O)cc1 [(E)-3-[2-n-butyl-1-{(4-carboxyphenyl)methyl}-1H-imidazol-5-yl]-2-(2-thienyl)methyl-2-propenoic acid]
Mean arterial pressure
  ED (30 mmHg): ~10 mg/kg
[1]
  IC50: ~1 nM
[2]; i.v.
  ED50: ~0.1 mg/kg
[2]; po, orally
  ED50: ~5.5 mg/kg
